This note sets out measurements from patent publication EP2185126B1, “USE OF TROXERUTIN TO QUENCH THE FLUORESCENCE OF DISODIUM PHENYL DIBENZIMIDAZOLE TETRASULFONATE” (Symrise AG, priority 2007, dated 2007).

Data set [1] in a line: Colour and colour stability of emulsion on storage. It counts as physicochemical. As to conditions: emulsion prepared with the substance.
Data set [2] can be described thus: Solubility in water. The class given is physicochemical.

`COc1ccc([C@@H]2CC(=O)c3c(O)cc(O[C@@H]4O[C@H](CO[C@@H]5O[C@@H](C)[C@H](O)[C@@H](O)[C@H]5O)[C@@H](O)[C@H](O)[C@H]4O)cc3O2)cc1O` [hesperidin]: the “colour / colour stability of emulsion” value in data set [1] is on record as “less susceptible to colouration problems than other flavone derivatives”. Besides, in data set [2], the solubility in water result is given as “poorly soluble in water”.

As to `C[C@@H]1O[C@@H](O[C@H]2[C@H](Oc3cc(O)c4c(c3)O[C@H](c3ccc(O)cc3)CC4=O)O[C@H](CO)[C@@H](O)[C@@H]2O)[C@H](O)[C@H](O)[C@H]1O` [naringin], the “colour / colour stability of emulsion” value in data set [1] is “less susceptible to colouration problems than other flavone derivatives”. In addition, in data set [2], the solubility in water result is “poorly soluble in water”.

Take `O=c1c(O)c(-c2ccc(O)c(O)c2)oc2cc(O)cc(O)c12` [quercetin]: the “colour / colour stability of emulsion” value in data set [1] is reported as “deeply yellow in colour”.

On to `C[C@@H]1O[C@@H](OC[C@H]2O[C@@H](Oc3c(-c4ccc(O)c(O)c4)oc4cc(O)cc(O)c4c3=O)[C@H](O)[C@@H](O)[C@@H]2O)[C@H](O)[C@H](O)[C@H]1O` [rutin], for which the “colour / colour stability of emulsion” value in data set [1] was “beige in colour and on storage turns dark brown”.

As to `C[C@@H]1O[C@@H](OC[C@H]2O[C@@H](Oc3c(-c4ccc(OCCO)c(OCCO)c4)oc4cc(OCCO)cc(O)c4c3=O)[C@H](O)[C@@H](O)[C@@H]2O)[C@H](O)[C@H](O)[C@H]1O` [troxerutin, 7,3',4'-tris[O-(2-hydroxyethyl)]rutin], the “colour / colour stability of emulsion” value in data set [1] is listed as “long term colour stability”. Besides, the solubility in water result in data set [2] is reported as “ease of solubility in water”.
